# Data as given in patent US20240182526A1, “COMPOSITIONS AND METHODS FOR MODULTING INFLAMMATORY AND DEGENERATIVE DISORDER” (University of Southern California, priority 2021, published 2024).
# Entries after “also recorded” stand apart in the source; their conditions may differ.
# Experiments:
# [1] = molecular target: T1, heterodimerization of gp130 with IL-6 family of cytokines' alpha receptors (Homo sapiens, UniProt P40189); test: Receptor-competition assay (co-IP of gp130 FLAG with alpha receptors); type: cell-based; conditions: articular chondrocytes transfected with gp130 FLAG, different doses, 4 and 24 hours
# T1 construct: A plasmid encoding full-length gp130 (WTgp130; InVivoGen) was used to create the 5 mutants; expressed in transfected cells
# T1 sequence (P40189 23-918, one chain of several): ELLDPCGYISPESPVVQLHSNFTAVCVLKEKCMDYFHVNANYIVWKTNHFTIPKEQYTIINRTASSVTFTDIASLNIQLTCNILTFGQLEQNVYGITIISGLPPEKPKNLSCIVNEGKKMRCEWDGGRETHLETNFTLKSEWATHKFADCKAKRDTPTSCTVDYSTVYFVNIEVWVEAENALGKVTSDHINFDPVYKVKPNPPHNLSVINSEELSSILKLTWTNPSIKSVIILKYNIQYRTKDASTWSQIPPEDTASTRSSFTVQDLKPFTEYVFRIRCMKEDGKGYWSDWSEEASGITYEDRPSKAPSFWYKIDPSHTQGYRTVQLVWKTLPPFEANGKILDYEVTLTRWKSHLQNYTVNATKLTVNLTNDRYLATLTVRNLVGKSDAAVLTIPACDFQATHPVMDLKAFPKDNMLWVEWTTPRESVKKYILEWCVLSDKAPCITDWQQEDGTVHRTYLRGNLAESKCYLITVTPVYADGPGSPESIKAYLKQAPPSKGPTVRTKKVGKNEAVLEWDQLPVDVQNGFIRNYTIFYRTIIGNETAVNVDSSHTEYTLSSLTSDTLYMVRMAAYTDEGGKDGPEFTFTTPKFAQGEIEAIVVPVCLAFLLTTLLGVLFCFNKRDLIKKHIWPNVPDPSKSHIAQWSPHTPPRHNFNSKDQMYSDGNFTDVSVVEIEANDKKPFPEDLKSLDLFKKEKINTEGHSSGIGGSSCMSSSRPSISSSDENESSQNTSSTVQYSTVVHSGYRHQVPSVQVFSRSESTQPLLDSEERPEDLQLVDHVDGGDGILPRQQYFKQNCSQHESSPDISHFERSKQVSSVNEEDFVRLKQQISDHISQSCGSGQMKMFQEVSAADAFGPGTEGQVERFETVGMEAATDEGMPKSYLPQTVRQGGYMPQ
# Description: IP Western, SDS-PAGE and Western blot analysis. For transfections of gp130 wild type (WT) (InVivoGen) and gp130 mutant plasmids (Thermo Scientific), cells were plated 24 h prior to transfection to produce monolayers that were 60% confluent and these were transfected by using Turbo DNAfectin 3000 (cat #G3000, Lambda Biotech) according to the manufacturer's protocol. 72h after transfection, cells were maintained in DMEM (10% FBS, 1% PSA) and were either left untreated or were stimulated with IL-6 (10 ng/mL) and/or OSM (10 ng/mL) for 24 h before cell harvest and protein extraction. For immunoprecipitation assays, cell lysates were incubated with Protein G Agarose (cat #20398, Pierce) and anti-Flag antibody (cat #2368, Cell Signaling) at 4° C. overnight. The immune complexes were sedimented, washed and separated by SDS-PAGE (see below) and further analyzed by Western blot using p-SRC (pY416-SRC) (cat #1246F, Novus Biologicals) or NEMO (cat #18474-1-AP, Proteintech) antibodies and normalized to gp130 (cat #bs-1459R, Bioss) or total SRC (cat #2123, Cell Signaling). For R805 treatment, the immune complexes were sedimented, washed and separated by SDS-PAGE and further analyzed by Western blot using OSMR (cat #ab85575, Abcam), LIFR (Santa cat #515337, Cruz Biotechnology) or p-SRC (pY416-SRC) (Novus Biologicals, cat #1246F). […]
# canine OA model = test: Canine osteoarthritis model (medial meniscal release); type: in vivo, dog; conditions: for histological (OARSI) scores of joint sections, matrix catabolism: intra-articular injections at post-operative weeks 4 and 11
# Description: Single-cell sequencing using 10× Genomics. Single cell samples were prepared using Next GEM Single Cell 5′ v2 (dual index) and Chip Kit (10× Genomics) according to the manufacturer's protocol. Briefly samples were FACS sorted using DAPI to select live cells followed by resuspension in 0.04% BSA-PBS. Nearly 1200 cells/μl were added to each well of the chip with a target cell recovery estimate of 10000 cells. Thereafter Gel bead-in Emulsions (GEMs) were generated using GemCode Single-Cell Instrument. GEMs were reverse transcribed, droplets were broken and single stranded cDNA was isolated. cDNAs were cleaned up with DynaBeads and amplified. Finally, cDNAs were ligated with adapters, post-ligation products were amplified, cleaned-up with SPRIselect and purified libraries were sequenced on Novaseq.
# 10× Sequencing data analysis. Raw sequencing reads were processed using Partek Flow Analysis Software (build version 10.0.21.0210). Briefly, raw reads were checked for their quality, trimmed and reads with an average base quality score per position>30 were considered for alignment. Trimmed reads were aligned to the dog genome version canFam3-Ensembl_v102 using STAR-2.6.1d with default parameters. Reads with alignment percentage >75% were deduplicated based on their unique molecular identifiers (UMIs). Reads mapping to the same chromosomal location with duplicate UMIs were removed. Thereafter ‘Knee’ plot was constructed using the cumulative fraction of reads/UMIs for all barcodes. Barcodes […] the cut-off defined by the location of the knee were assigned as true cell barcodes and quantified. Further noise filtration was done by removing cells having >5% mitochondrial counts and total read counts >24,000. Genes not expressed in any cell were also removed as an additional clean-up step. Cleaned-up reads were normalized using counts per million (CPM) method followed by log-transformation generating count matrices for each sample. Samples were batch-corrected on the basis of expressed genes and mitochondrial reads percent. Count matrices were used to visualize and explore the samples in further details by generating tSNE plots, a non-linear dimensional reduction technique. This algorithm learns the underlying manifold of the data and places similar cells together in a low-dimensional space. Gene ontology enrichment analysis for the differentially expressed genes was performed using DAVID Gene Functional Classification Tool ([http://]david.abcc.ncifcrf.gov; version 6.8). Dot plots were generated in R (v4.0.3) using ggplot2(v3.3.3).
# Immunohistochemistry. Histological staining for was performed on wild type (WT) mice, F814 mice and all mice that underwent destabilization of the medial meniscus (DMM). Six weeks after surgery, mice were sacrificed and joints were fixed in 10% formalin, decalcified in 10% EDTA and embedded in paraffin. For rat model, 6 weeks after partial medial meniscectomy (PMM), rats were sacrificed and joints were fixed in 10% formalin, decalcified in 10% EDTA and embedded in paraffin. A total of three 8 μm thick sections were made at a 200 μm interval by coronal sectioning. For canine model, 4 and 16 weeks after medial meniscal release (MMR), dogs were sacrificed and joints were fixed in 10% formalin, decalcified in 10% EDTA and embedded in paraffin. No animals were excluded from analysis. A microtome (Leica) was used to cut 5-μm sections for joints. H&E staining was performed to assess morphology. Safranin O/Fast Green staining, immunohistochemistry for proteolytic enzymes and Osteoarthritis Research Society International (OARSI) scoring was performed as described (41, 42). For OARSI scoring, observers performing the analysis were blinded as whether the slides were from treated or control animals. The stained samples were visually observed using LSCM (Zeiss LSM710, Carl Zeiss, Germany).
# Canine osteoarthritis model. […]
smiles,measurement,setting,value
Cc1ccc(-c2csc(NC(=O)c3ccccn3)n2)cc1 [Peptide R805],IL-6 family-induced heterodimerization of gp130 with α-receptors,[1],markedly suppressed; also recorded: inhibits heterodimerization of gp130 with IL-6 family of cytokines' alpha receptors
same,histological abnormalities of cartilage,canine OA model; 0.1 μg dose group (as in saline group),focal partial- and full thickness cartilage erosions
same,cortical outline of the medial tibial plateau,canine OA model; 10 ug and 1 ug doses,almost no change in the cortical outline
same,"bone mineral density (sclerosis) in medial compartment of the operated stifle, microCT",canine OA model; 10 and 1 μg groups,consistent absence of sclerosis
same,scRNA-seq of synoviocytes: joint inflammatory milieu,canine OA model; R805-treated vs control dogs,"biases the joint environment away from a chronic inflammatory identity following injury; also recorded: promotes an anti-inflammatory, anti-fibrotic milieu in an injured joint"
same,knee joint shape change from baseline (serial CT),canine OA model; canine OA model,clearly controlled; also recorded: dose-dependent reduction in ectopic bone formation
same,pain (Colorado Pain Scores),canine OA model; canine OA model,minimal pain
same,"subchondral sclerosis / BMD in the contralateral, non-operated knee",canine OA model; canine OA model,did not develop subchondral sclerosis in the contralateral knee; also recorded: increased with decreasing dose of R805
same,pain (Colorado Pain Scores),"canine OA model; canine OA model, listed as CX-011",profound effect on alleviating pain
same,synovial membrane inflammation,canine OA model; high and middle dose groups,mild intimal hypertrophy with occasional subintimal mononuclear cell infiltration; also recorded: reduced by mid and high doses of R805
same,lameness scores,canine OA model; high dose group,minimal pain (FIG. 5E) and lameness
same,"histological (OARSI) scores of joint sections, matrix catabolism",canine OA model,dramatically reduces the appearance of OA in rat and canine models; also recorded: incremental improvement in the histological scores as the R805 dose increased
same,"histological (OARSI) scores of joint sections, matrix catabolism",canine OA model; listed as CX-011,profound effect on alleviating pain and matrix catabolism
same,synovial membrane inflammation,canine OA model; low dose (as in saline treated dogs),"profound increase in subintimal vasculature, new connective tissue and cellular infiltrate"
